According to patent publication US12290519B2, “Anti-inflammatory coupling compound drug, and preparation method therefor and use thereof” (COVAL BIOPHARMA (SHANGHAI) CO., LTD., priority 2021, dated 2025):

Test: Hydrolysis rate / drug release rate of the compounds (release of JAK inhibitor, HPLC)
Assay type: physicochemical
Conditions: % release of JAK inhibitor from sample in acetonitrile/water=7/3 (v/v), 37° C. constant temperature shaker, sampled days 1-4, HPLC
Procedure: Analysis Method for Hydrolysis Rate of Compounds of the Present Invention
1. Preparation of Standard Working Curve Solution
(§1) About 10 mg of JAK inhibitors (tofacitinib and baricitinib) reference substances were weighed into a 25 mL volumetric flask, acetonitrile/water=7/3 (v/v) was added to dissolve and dilute to the marked volume, serving as a stock solution. The stock solution was diluted with a suitable dilution factor to obtain linear solutions of each concentration: 0.0002 mg/mL, 0.0004 mg/mL, 0.004 mg/mL, 0.04 mg/mL, and 0.08 mg/mL.
as §1, with “(Oclacitinib, Ruxolitinib, Delgocitinib,” for “(tofacitinib”, “Upadacitinib)” for “baricitinib)”
2. Preparation of Sample Solution
About 5 mg of the sample (the compound prepared in the present invention) was weighed into a 20 mL volumetric flask, acetonitrile/water=7/3 (v/v) was added to dissolve and dilute to the marked volume, serving as a stock solution. An appropriate amount of HPLC was loaded as the 0-day sample. The test solution was sealed with a sealing film and placed in a 37° C. constant temperature shaker. The test samples were taken at the same time on days 1, 2, 3, and 4 respectively. the release amount of JAK inhibitor in the sample was calculated according to the sample weight and JAK inhibitor standard curve.
3. Calculation Formula % Release of JAK Inhibitor r=100%×((AJAK Inhibitor−b)/a)/((W/20×M2/M1) wherein • AJAK inhibitor is the peak area of JAK inhibitor in the sample chromatogram • b is the intercept of the standard curve M1 is the molecular weight of the sample a is the slope of the standard curve
W is the sample weight (mg) M2 is the molecular weight of the JAK inhibitor
4. Chromatographic Conditions

Release Rate (%/day)	Compound
8.26 %/day	CC(C)Cc1ccc(C(C)C(=O)n2ccc3c(N(C)[C@H]4CN(C(=O)CC#N)CC[C@H]4C)ncnc32)cc1 (stereo partly drawn) [Ex. 1, 3-((3R,4R)-3-((7-(2-(4-isobutylphenyl)propanoyl)-7H-pyrrolo [2,3-d]pyrimidin-4-yl) (methyl)amino)-4-methylpiperidin-1-yl)-3-oxopropanenitrile]
0.05 %/day	CC(C)Cc1ccc([C@H](C)C(=O)OCn2ccc3c(N(C)[C@H]4CN(C(=O)CC#N)CC[C@H]4C)ncnc32)cc1 [Ex. 3]
3.32 %/day	Cc1cccc(Nc2ccccc2C(=O)n2ccc3c(N(C)[C@H]4CN(C(=O)CC#N)CC[C@H]4C)ncnc32)c1C [Ex. 4, 3-((3R,4R)-3-((7-(2-((2,3-dimethylphenyl)amino)benzoyl)-7H-pyrrolo[2,3-d]pyrimidin-4-yl)(methyl)amino)-4-methylpiperidin-1-yl)-3-oxopropanenitrile]
9.82 %/day	COc1ccc2cc([C@H](C)C(=O)n3ccc4c(N(C)[C@H]5CN(C(=O)CC#N)CC[C@H]5C)ncnc43)ccc2c1 [Ex. 6, 3-((3R, 4R)-3-((7-((S)-2-(6-methoxynaphthalen-2-yl)propanoyl)-7H-pyrrolo[2,3-d]pyrimidin-4-yl) (methyl)amino)-4-methylpiperidin-1-yl)-3-oxopropanenitrile]
15.65 %/day	CC(C(=O)n1ccc2c(N(C)[C@H]3CN(C(=O)CC#N)CC[C@H]3C)ncnc21)c1cccc(C(=O)c2ccccc2)c1 (stereo partly drawn) [Ex. 7, 3-((3R,4R)-3-((7-(2-(3-benzoylphenyl)propanoyl)-7H-pyrrolo[2,3-d]pyrimidin-4-yl) (methyl)amino)-4-methylpiperidin-1-yl)-3-oxopropanenitrile]
14.77 %/day	CC(C(=O)n1ccc2c(N(C)[C@H]3CN(C(=O)CC#N)CC[C@H]3C)ncnc21)c1ccc(-c2ccccc2)c(F)c1 (stereo partly drawn) [Ex. 8, 3-((3R, 4R)-3-((7-(2-(2-fluoro-[1, 1′-biphenyl]-4-yl)propanoyl)-7H-pyrrolo[2,3-d]pyrimidin-4-yl)(methyl)amino)-4-methylpiperidin-1-yl)-3-oxopropanenitrile]
13.49 %/day	C[C@@H]1CCN(C(=O)CC#N)C[C@@H]1N(C)c1ncnc2c1ccn2C(=O)Cc1ccccc1Nc1c(Cl)cccc1Cl [Ex. 9]
11.25 %/day	CC(C(=O)n1ccc2c(N(C)[C@H]3CN(C(=O)CC#N)CC[C@H]3C)ncnc21)c1cccc(Oc2ccccc2)c1 (stereo partly drawn) [Ex. 10, 3-((3R,4R)-4-methyl-3-(methyl (7-(2-(3-phenoxyphenyl)propanoyl)-7H-pyrrolo [2,3-d]pyrimidin-4-yl)amino)piperidin-1-yl)-3-oxopropanenitrile]
9.17 %/day	CC(C(=O)n1ccc2c(N(C)[C@H]3CN(C(=O)CC#N)CC[C@H]3C)ncnc21)c1ccc(CC2CCCC2=O)cc1 (stereo partly drawn) [Ex. 11, 3-((3R,4R)-4-methyl-3-(methyl (7-(2-(4-((2-oxocyclopentyl)methyl)phenyl)propanoyl)-7H-pyrrolo[2,3-d]pyrimidin-4-yl)amino)piperidin-1-yl)-3-oxopropanenitrile]
12.18 %/day	CC(=O)Nc1ccc(CC(=O)n2ccc3c(N(C)[C@H]4CN(C(=O)CC#N)CC[C@H]4C)ncnc32)cc1 [Ex. 13, N-(4-(2-(4-(((3R, 4R)-1-(2-cyanoacetyl)-4-methylpiperidin-3-yl) (methyl)amino)-7H-pyrrolo[2,3-d]pyrimidin-7-yl)-2-oxoethyl)phenyl)acetamide]
0.98 %/day	CCc1cccc2c3c([nH]c12)C(CC)(CC(=O)n1ccc2c(N(C)[C@H]4CN(C(=O)CC#N)CC[C@H]4C)ncnc21)OCC3 (stereo partly drawn) [Ex. 14, 3-((3R,4R)-3-((7-(2-(1,8-diethyl-1,3,4,9-tetrahydropyrano[3,4-b]indol-1-yl)acetyl)-7H-pyrrolo[2,3-d]pyrimidin-4-yl) (methyl)amino)-4-methylpiperidin-1-yl)-3-oxopropanenitrile]
